Test results: patent publication US9708368B2, “Linear peptide antibiotics” (priority 2012, dated 2017)
Values after ≈ are worked out from the molar mass of the structure shown. Square brackets hold non-standard residues; d marks the D form. Peptide text beside a SMILES is read from it. * marks the point of attachment. ξ: configuration not given here. boroAla((+)-pinanediol) = C[C@H](N*)B1O[C@@H]2C[C@@H]3C[C@@H](C3(C)C)[C@]2(C)O1; Biphenylcarbonyl(4'-Bu) = CCCCc1ccc(-c2ccc(C(=O)*)cc2)cc1; X1 = C[C@H](N*)B1OC2C[C@@H]3C[C@@H](C3(C)C)[C@]2(C)O1; Benzoyl(4-(4-Cl-Ph)) = O=C(c1ccc(-c2ccc(Cl)cc2)cc1)*; Lys(Me3) = C[N+](C)(C)CCCC[C@H](N)C(=O)O; Pro(4R-NH2) = N[C@H]1CN[C@H](C(=O)O)C1; NMeY = CN[C@@H](Cc1ccc(O)cc1)C(=O)O; Gly(cPr) = N[C@H](C(=O)O)C1CC1; Thr(3ξ) = CC(O)[C@H](N)C(=O)O; Decanoyl = CCCCCCCCCC(=O)*; boroAla = C[C@H](N*)B(O)O; Orn = NCCC[C@H](N)C(=O)O; Dab = NCC[C@H](N)C(=O)O; Abu = CC[C@H](N)C(=O)O; Dap = NC[C@H](N)C(=O)O; βAla = NCCC(=O)O

How the values were obtained:
[1] = system: Escherichia coli strain MC4100 IMP-4213, which harbors an LptD mutation; settings: Method B; E. coli MC4100 IMP-4213 (LptD mutation); 35° C., 22 hours
Experimental: In vitro antimicrobial activity of each compound was determined by measuring minimal inhibitor concentrations (MICs) using the broth micro-dilution technique as approved by the Clinical and Laboratory Standards Institute (CLSI). […] Bacterial inocula were prepared by scraping cells into 1 mL of testing media (cation adjusted Mueller Hinton Broth supplemented with 0.002% v/v Tween-80) and diluting to a final OD600 nm of 0.01.
Test compounds were prepared in DMSO at a concentration of 10 mg/ml. […] Bacterial inocula were added to the two fold serial dilutions of test compounds to a final density of OD OD600 nm of 0.0005 and incubated stationarily at 35° C. for 22 hours, after which the plates were examined visually.

[2] = system: methicillin resistant Staphylococcus aureus (MRSA) strain USA300 (NRS384); settings: Method B, 35° C., 22 hours
S. aureus SPase = S. aureus SPase (Staphylococcus aureus, UniProt P0A070); assay: biochemical
E. coli SPase = E. coli SPase (Escherichia coli, UniProt P00803); assay: Biochemical SPase activity assay (fluorogenic peptide substrate), E. coli enzyme

Row | Compound | MIC (μg/mL) E. coli [1] | MIC (μg/mL) S. aureus [2] | IC50 (S. aureus SPase) | IC50 (E. coli SPase)
1 | CCCCc1ccc(-c2ccc(C(=O)N[C@@H](CCCCN)C(=O)N[C@@H](CCCCN)C(=O)N[C@@H](C)C(=O)N[C@@H](CC(C)C)C(=O)N[C@@H](C)B3OC4C[C@@H]5C[C@@H](C5(C)C)[C@]4(C)O3)cc2)cc1 (stereo partly shown) [Compound 146] ({Biphenylcarbonyl(4'-Bu)}-KKAL-X1) | 0.25 µg/mL (≈ 0.278 µM) | 0.4 µg/mL (≈ 0.444 µM) | 160 nM | 12 nM
2 | CCCCc1ccc(-c2ccc(C(=O)N[C@@H](CCCCN)C(=O)N[C@H](C(=O)N[C@H](C(=O)N[C@@H](CCCCN)C(=O)N[C@@H](C)B(O)O)C3CC3)C(C)O)cc2)cc1 (stereo partly shown) [Compound 147] ({Biphenylcarbonyl(4'-Bu)}-K[Thr(3ξ)][Gly(cPr)]K-boroAla) | 0.31 µg/mL (≈ 0.398 µM) | 0.25 µg/mL (≈ 0.321 µM) | 98 nM | 14 nM
3 | CCCCc1ccc(-c2ccc(C(=O)N[C@@H](CCN)C(=O)N[C@H](C(=O)N[C@@H](C)C(=O)N[C@@H](CCCCN)C(=O)N[C@@H](C)B3OC4C[C@@H]5C[C@@H](C5(C)C)[C@]4(C)O3)C(C)O)cc2)cc1 (stereo partly shown) [Compound 148] ({Biphenylcarbonyl(4'-Bu)}-[Dab][Thr(3ξ)]AK-X1) | 0.4 µg/mL (≈ 0.465 µM) | 0.23 µg/mL (≈ 0.267 µM) | 140 nM | 7.4 nM
4 | CCCCc1ccc(-c2ccc(C(=O)N[C@@H](CN)C(=O)N[C@H](C(=O)N[C@@H](C)C(=O)N[C@@H](CCCCN)C(=O)N[C@@H](C)B3O[C@@H]4C[C@@H]5C[C@@H](C5(C)C)[C@]4(C)O3)[C@@H](C)O)cc2)cc1 [Compound 149] ({Biphenylcarbonyl(4'-Bu)}-[Dap]TAK-{boroAla((+)-pinanediol)}) | 0.31 µg/mL (≈ 0.366 µM) | 0.28 µg/mL (≈ 0.331 µM) | 129 nM | 3.9 nM
5 | CCCCc1ccc(-c2ccc(C(=O)N[C@@H](CCCN)C(=O)N[C@H](C(=O)N[C@@H](CC)C(=O)N[C@@H](CCCCN)C(=O)N[C@@H](C)B3OC4C[C@@H]5C[C@@H](C5(C)C)[C@]4(C)O3)C(C)O)cc2)cc1 (stereo partly shown) [Compound 150] ({Biphenylcarbonyl(4'-Bu)}-[Orn][Thr(3ξ)][Abu]K-X1) | 0.5 µg/mL (≈ 0.563 µM) | 0.3 µg/mL (≈ 0.338 µM) | 270 nM | 6 nM
6 | CCCCc1ccc(-c2ccc(C(=O)N[C@@H](CCCCN)C(=O)N[C@@H](CCC(=O)O)C(=O)N[C@@H](C)C(=O)N[C@@H](CCCCN)C(=O)N[C@@H](C)B3O[C@@H]4C[C@@H]5C[C@@H](C5(C)C)[C@]4(C)O3)cc2)cc1 [Compound 151] ({Biphenylcarbonyl(4'-Bu)}-KEAK-{boroAla((+)-pinanediol)}) | 1.2 µg/mL (≈ 1.31 µM) | 0.71 µg/mL (≈ 0.775 µM) | 38 nM | 8.8 nM
7 | CCCCc1ccc(-c2ccc(C(=O)N[C@@H](CCCCN)C(=O)N3C[C@H](N)C[C@H]3C(=O)N[C@@H](C)C(=O)N[C@@H](CC(C)C)C(=O)N[C@@H](C)B(O)O)cc2)cc1 [Compound 152] ({Biphenylcarbonyl(4'-Bu)}-K[Pro(4R-NH2)]AL-boroAla) | 0.5 µg/mL (≈ 0.667 µM) | 0.4 µg/mL (≈ 0.534 µM) | 350 nM | 25 nM
8 | C[C@H](NC(=O)[C@H](CC(N)=O)NC(=O)[C@H](C)NC(=O)[C@@H](NC(=O)[C@H](CCCCN)NC(=O)CCNC(=O)c1ccc(-c2ccc(Cl)cc2)cc1)[C@@H](C)O)B(O)O [Compound 154] ({Benzoyl(4-(4-Cl-Ph))-βAla}-KTAN-boroAla) | 32 µg/mL (≈ 40.6 µM) | 2.8 µg/mL (≈ 3.55 µM) | 8.1 nM | 14 nM
9 | CCCCc1ccc(-c2ccc(C(=O)N[C@@H](CCCN)C(=O)N[C@H](C(=O)N[C@@H](C)C(=O)N[C@@H](CCCCN)C(=O)N[C@@H](C)B(O)O)C(C)O)cc2)cc1 (stereo partly shown) [Compound 156] ({Biphenylcarbonyl(4'-Bu)}-[Orn][Thr(3ξ)]AK-boroAla) | 0.5 µg/mL (≈ 0.676 µM) | 0.31 µg/mL (≈ 0.419 µM) | 97 nM | 5.5 nM
10 | CCCCc1ccc(-c2ccc(C(=O)N[C@@H](CCCCN)C(=O)N(C)[C@@H](Cc3ccc(O)cc3)C(=O)N[C@@H](C)C(=O)N[C@@H](CCCCN)C(=O)N[C@@H](C)B(O)O)cc2)cc1 [Compound 157] ({Biphenylcarbonyl(4'-Bu)}-K[NMeY]AK-boroAla) | 4 µg/mL (≈ 4.82 µM) | 2 µg/mL (≈ 2.41 µM) | 1000 nM | 130 nM
11 | CCCCc1ccc(-c2ccc(C(=O)N[C@@H](CCCCN)C(=O)N3CCC[C@H]3C(=O)N[C@@H](C)C(=O)N[C@@H](CC(N)=O)C(=O)N[C@@H](C)B(O)O)cc2)cc1 [Compound 158] ({Biphenylcarbonyl(4'-Bu)}-KPAN-boroAla) | 5 µg/mL (≈ 6.8 µM) | 5.7 µg/mL (≈ 7.75 µM) | 400 nM | 33 nM
12 | CCCCc1ccc(-c2ccc(C(=O)N[C@@H](CCCC[N+](C)(C)C)C(=O)N[C@H](C(=O)N[C@@H](C)C(=O)N[C@@H](CCCCN)C(=O)N[C@@H](C)B(O)O)[C@@H](C)O)cc2)cc1 [Compound 159] ({Biphenylcarbonyl(4'-Bu)}-[Lys(Me3)]TAK-boroAla) | 16 µg/mL | 1 µg/mL | 86 nM | 240 nM
13 | CCCCc1ccc(-c2ccc(C(=O)N[C@H](CCCCN)C(=O)N[C@H](C(=O)N[C@@H](C)C(=O)N[C@@H](CCCCN)C(=O)N[C@@H](C)B(O)O)C(C)O)cc2)cc1 (stereo partly shown) [Compound 160] ({Biphenylcarbonyl(4'-Bu)}-[dK][Thr(3ξ)]AK-boroAla) | 64 µg/mL (≈ 84.9 µM) | 2.8 µg/mL (≈ 3.71 µM) | 900 nM | 2100 nM
14 | CCCCc1ccc(-c2ccc(C(=O)N[C@@H](CCCCN)C(=O)N[C@@H](CCN)C(=O)N[C@@H](C)C(=O)N[C@@H](CC(C)C)C(=O)N[C@@H](C)B(O)O)cc2)cc1 [Compound 161] ({Biphenylcarbonyl(4'-Bu)}-K[Dab]AL-boroAla) | 0.71 µg/mL (≈ 0.962 µM) | 0.63 µg/mL (≈ 0.854 µM) | 300 nM | 60 nM
15 | CCCCc1ccc(-c2ccc(C(=O)N[C@@H](CN)C(=O)N[C@H](C(=O)N[C@@H](C)C(=O)N[C@@H](CCCCN)C(=O)N[C@@H](C)B(O)O)[C@@H](C)O)cc2)cc1 [Compound 162] ({Biphenylcarbonyl(4'-Bu)}-[Dap]TAK-boroAla) | 0.5 µg/mL (≈ 0.703 µM) | 0.4 µg/mL (≈ 0.562 µM) | 200 nM | 12 nM
16 | CCCCc1ccc(-c2ccc(C(=O)N[C@@H](CCC(=O)O)C(=O)N[C@H](C(=O)N[C@@H](C)C(=O)N[C@@H](CCCCN)C(=O)N[C@@H](C)B(O)O)[C@@H](C)O)cc2)cc1 [Compound 163] ({Biphenylcarbonyl(4'-Bu)}-ETAK-boroAla) | >64 µg/mL | 4 µg/mL (≈ 5.3 µM) | 310 nM | 240 nM
17 | CCCCc1ccc(-c2ccc(C(=O)N[C@@H](CO)C(=O)N[C@H](C(=O)N[C@@H](C)C(=O)N[C@@H](CCCCN)C(=O)N[C@@H](C)B(O)O)[C@@H](C)O)cc2)cc1 [Compound 164] ({Biphenylcarbonyl(4'-Bu)}-STAK-boroAla) | 1 µg/mL (≈ 1.4 µM) | 1.4 µg/mL (≈ 1.96 µM) | 120 nM | 44 nM
18 | CCCCc1ccc(-c2ccc(C(=O)N[C@@H](CCCCN)C(=O)N[C@@H](CN)C(=O)N[C@@H](C)C(=O)N[C@@H](CC(C)C)C(=O)N[C@@H](C)B(O)O)cc2)cc1 [Compound 165] ({Biphenylcarbonyl(4'-Bu)}-K[Dap]AL-boroAla) | 0.63 µg/mL (≈ 0.87 µM) | 0.63 µg/mL (≈ 0.87 µM) | 410 nM | 120 nM
19 | CCCCc1ccc(-c2ccc(C(=O)N[C@@H](CCCCN)C(=O)NC(C(=O)N[C@@H](C)C(=O)N[C@@H](CCCCN)C(=O)N[C@@H](C)B(O)O)c3ccc(OC)cc3)cc2)cc1 (stereo partly shown) [Compound 166] | 0.5 µg/mL (≈ 0.613 µM) | 0.63 µg/mL (≈ 0.772 µM) | 350 nM | 36 nM
20 | C[C@H](NC(=O)[C@H](CCCCN)NC(=O)[C@H](C)NC(=O)[C@@H](NC(=O)[C@H](CN)NC(=O)c1ccc(-c2ccc(Cl)cc2)cc1)[C@@H](C)O)B1OC2C[C@@H]3C[C@@H](C3(C)C)[C@]2(C)O1 (stereo partly shown) [Compound 167] ({Benzoyl(4-(4-Cl-Ph))}-[Dap]TAK-X1) | 4 µg/mL (≈ 4.85 µM) | 1.7 µg/mL (≈ 2.06 µM) | 190 nM | 5.2 nM
21 | C[C@H](NC(=O)[C@H](CCCCN)NC(=O)[C@H](C)NC(=O)[C@H](CCCCN)NC(=O)[C@H](CN)NC(=O)c1ccc(-c2ccc(Cl)cc2)cc1)B1OC2C[C@@H]3C[C@@H](C3(C)C)[C@]2(C)O1 (stereo partly shown) [Compound 168] ({Benzoyl(4-(4-Cl-Ph))}-[Dap]KAK-X1) | 1 µg/mL (≈ 1.17 µM) | 0.79 µg/mL (≈ 0.928 µM) | 250 nM | 5.4 nM
22 | CCCCCCCCCC(=O)N[C@@H](CN)C(=O)N[C@H](C(=O)N[C@@H](C)C(=O)N[C@@H](CCCCN)C(=O)N[C@@H](C)B1OC2C[C@@H]3C[C@@H](C3(C)C)[C@]2(C)O1)[C@@H](C)O (stereo partly shown) [Compound 169] (Decanoyl-[Dap]TAK-X1) | 11 µg/mL (≈ 14.4 µM) | 3.2 µg/mL (≈ 4.19 µM) | 87 nM | 3.9 nM
